In this experiment the target is T1, Tyrosine-protein phosphatase non-receptor type 5 (Homo sapiens, UniProt P54829).
T1 sequence (P54829 whole entry): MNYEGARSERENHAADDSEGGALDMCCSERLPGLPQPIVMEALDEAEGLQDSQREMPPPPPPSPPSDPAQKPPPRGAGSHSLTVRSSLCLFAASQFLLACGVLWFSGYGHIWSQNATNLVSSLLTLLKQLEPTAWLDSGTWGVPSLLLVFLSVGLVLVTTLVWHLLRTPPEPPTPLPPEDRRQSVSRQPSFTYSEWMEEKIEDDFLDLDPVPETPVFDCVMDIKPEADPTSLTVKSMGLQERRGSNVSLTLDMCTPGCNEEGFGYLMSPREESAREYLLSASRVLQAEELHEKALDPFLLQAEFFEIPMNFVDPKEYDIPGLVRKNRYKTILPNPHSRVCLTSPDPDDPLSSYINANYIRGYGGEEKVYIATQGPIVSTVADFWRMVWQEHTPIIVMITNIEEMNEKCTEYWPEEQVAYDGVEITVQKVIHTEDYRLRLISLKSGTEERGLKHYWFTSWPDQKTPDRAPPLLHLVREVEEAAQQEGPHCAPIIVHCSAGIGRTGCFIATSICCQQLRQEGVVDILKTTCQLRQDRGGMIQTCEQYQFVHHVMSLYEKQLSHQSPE
Nature of the experiment: Binding affinity to 6His-tagged STEP phosphatase domain (258 to 539 residues) (unknown origin) expressed in Escherichia coli BL21 Gold (DE3) after 90 secs at 30 degC by isothermal titration calorimetry assay.

We go through three compounds from ChEMBL document CHEMBL4028891, “X-ray Characterization and Structure-Based Optimization of Striatal-Enriched Protein Tyrosine Phosphatase Inhibitors” (J Med Chem, 2017).

Broadly, the Kd is the concentration at which binding is half-saturated. A lower Kd goes with a tighter complex.

SMILES strings stand for the structures.

The compound `O=P(O)(O)[C@H](O)c1ccc(-c2cccc([C@@H](O)c3ccc(Cl)c(Cl)c3)c2)cc1` returned a dissociation constant (Kd) of 27.2 µM.

`O=P(O)(O)[C@H](O)c1ccc(-c2cccc([C@H](O)c3ccc(Cl)c(Cl)c3)c2)cc1` registered a Kd of 31.4 µM. Compound `O=P(O)(O)C(F)(F)c1cccc(-c2cccc(C3CCCCC3)c2O)c1` returned a Kd of 70.4 µM.
